Results from patent publication US10722484B2, “Methods of cancer treatment” (K-Gen, Inc., priority 2016, dated 2020).
pEC50: −log10 of the molar value. Where two headings read alike, the source gives them in different places.

Assays:
AsPC-1 = test: Proliferation assay (CellTiter Glo); type: cell-based; details: for Top Inhibition %: % of top inhibition
Description: (§1) The dose range for most compounds was 4.6 nM-30 μM. The dose ranges for some compounds were adjusted downward to 0.46 nM-3 μM or 0.08 nM-0.5 μM or 0.03 nM-0.2 μM. […] The results are shown in Tables 3-6 for pancreatic cancer, lung cancer, colon/gastric cancer, and leukemia.

CCRF-CEM = test: Proliferation assay (CellTiter Glo); type: cell-based; details: for Top Inhibition %: % of top inhibition
Description: as §1

Pan2.03 = test: Proliferation assay (CellTiter Glo); type: cell-based; details: for Top Inhibition %: % of top inhibition
Description: as §1

Pan2.13 = test: Proliferation assay (CellTiter Glo); type: cell-based; details: for Top Inhibition %: % of top inhibition
Description: as §1

BxPC-3 = test: Proliferation assay (CellTiter Glo); type: cell-based; details: BxPC-3 (RAS WT); 96 hours
Description: as §1
(§2) Other cancer cell lines having wild-type K-RAS status and K-RAS mutation at G12 were also screened using the PKC activator compounds. […] K104 was tested in a range of 0.03 nM-0.2 μM. […] The dose ranges were adjusted downward to 0.46 nM-3 μM for K102 and 0.08 nM-0.5 μM for K103 for some cell lines. The results of the screening of cancer cells lines with wild-type K-RAS status and K-RAS mutations at the G12 positions are presented in Table 7.

Colo205 = test: Proliferation assay (CellTiter Glo); type: cell-based; details: Colo205 (RAS WT); 96 hours
Description: as §1, §2

H1915 = test: Proliferation assay (CellTiter Glo); type: cell-based; details: H1915 (RAS WT); 96 hours
Description: as §1, §2

H838 = test: Proliferation assay (CellTiter Glo); type: cell-based; details: H838 (RAS WT); 96 hours
Description: as §1, §2

HT29 = test: Proliferation assay (CellTiter Glo); type: cell-based; details: HT29 (RAS WT); 96 hours
Description: as §1, §2

[1] = tested on: pancreatic, lung, colon and leukemia cancer cell lines; test: Proliferation assay, summary over the panel of cancer cell lines; type: cell-based
Description: PKC activator compounds were tested in a panel of K-RAS mutant pancreatic, lung, and colon cancer cell lines, as well as a number of leukemia cell lines having either mutant K-RAS or N-RAS.
as §1

A549 = test: Proliferation assay (CellTiter Glo); type: cell-based; details: 96 hours
Description: as §1

AGS = test: Proliferation assay (CellTiter Glo); type: cell-based; details: 96 hours
Description: as §1

Capan-1 = test: Proliferation assay (CellTiter Glo); type: cell-based; details: 96 hours
Description: as §1

H358 = test: Proliferation assay (CellTiter Glo); type: cell-based; details: HE58, 96 hours
Description: as §1

H441 = test: Proliferation assay (CellTiter Glo); type: cell-based; details: 96 hours
Description: as §1

H727 = test: Proliferation assay (CellTiter Glo); type: cell-based; details: 96 hours
Description: as §1

HCT116 = test: Proliferation assay (CellTiter Glo); type: cell-based; details: 96 hours
Description: as §1

KP-4 = test: Proliferation assay (CellTiter Glo); type: cell-based; details: 96 hours
Description: as §1

LS180 = test: Proliferation assay (CellTiter Glo); type: cell-based; details: 96 hours
Description: as §1

SW620 = test: Proliferation assay (CellTiter Glo); type: cell-based; details: 96 hours
Description: as §1

MiaPaCa-2 [2] = test: Proliferation assay (CellTiter Glo); type: cell-based; details: 96 hours
HL60 = test: Proliferation assay (CellTiter Glo); type: cell-based, human; details: 96 hours
Description: as §1

THP1 = test: Proliferation assay (CellTiter Glo); type: cell-based, human; details: 96 hours
Description: as §1

RPMI8226 = test: Proliferation assay (CellTiter Glo); type: cell-based; details: RPM18226; 96 hours
Description: as §1, §2

SW900 = test: Proliferation assay (CellTiter Glo); type: cell-based; details: SW900 (K-RAS: G12V); 96 hours
Description: as §1, §2

[3] = tested on: A549 lung cancer cell line; test: Combination viability/proliferation assays (384-well IC50 ratio, 96-well MacSynergy II); type: cell-based
Description: (§3) A 96-well MacSynergy II format for combination test was also used. […] The analysis was done with the SQRT(Data) scale and the four parameter Hill curve was fitted using XLfit5.1 (the MacSynergy II Excel Spreadsheet) for the inhibition data. Synergy (positive number) or Antagonism (negative number) volumes were calculated. […] Three-dimensional MacSynergy II graphs were generated where positive values indicated synergism and negative values indicated antagonism.

MiaPaCa-2 [4] = test: Combination viability/proliferation assays; type: cell-based
Description: as §3

Panc2.13 = test: Combination viability/proliferation assays; type: cell-based; details: Panc2.13; K101A at 1 μM or at 0.67 μM
Description: as §3

## CCC/C=C/C=C/C(=O)O[C@H]1/C(=C/C(=O)OC)C[C@H]2C[C@H]([C@@H](C)O)OC(=O)C[C@H](O)C[C@@H]3C[C@H](OC(C)=O)C(C)(C)[C@](O)(C[C@@H]4C/C(=C/C(=O)OC)C[C@H](/C=C/C(C)(C)[C@]1(O)O2)O4)O3 [Compound K104, Bryostatin 1]
AsPC-1; AsPC-1, 96 hours
  Top Inhibition %: 4.2%
AsPC-1; Homo sapiens, ASPC1, 96 h, read-out: Ab EC50
  pEC50: < 6.70
CCRF-CEM; CCRF-CEM, 96 hours
  Top Inhibition %: 6.0%
CCRF-CEM; Homo sapiens, CCRF-CEM, 96 h, read-out: Ab EC50
  pEC50: < 6.70
Pan2.03; 96 h, read-out: Ab EC50
  pEC50: < 6.70
Pan2.03; Pan2.03, 96 hours
  Top Inhibition %: 0.0%
Pan2.13; 96 h, read-out: Ab EC50
  pEC50: < 6.70
Pan2.13; Pan2.13, 96 hours
  Top Inhibition %: 32.2%
BxPC-3
  Top Inhibition %: 3.99%
Colo205
  Top Inhibition %: 49.4%
H1915
  Top Inhibition %: 25.1%
H838
  Top Inhibition %: 20.0%
HT29
  Top Inhibition %: 4.3%
[1]
  activity in the proliferation assay / cancer cell lines: much lower activity
[1]; comparison with prostratin
  potency in proliferation inhibition relative to prostratin: less potent

## CC(=O)OC12CC(C)C3(O)C(C=C(CO)CC4(O)C(O)C(C)=CC43)C1C2(C)C (stereo not drawn) [Compound K101C]
A549; A549 (K-RAS: G12S), absolute EC50, read-out: Ab EC50
  pEC50: 4.89
A549; A549, % of top inhibition
  Top Inhibition %: 70.3%
A549; A549, relative EC50, read-out: Re EC50
  pEC50: 5.18
AGS; AGS (gastric, K-RAS: G12D), absolute EC50, read-out: Ab EC50
  pEC50: < 4.52
AGS; AGS, % of top inhibition
  Top Inhibition %: 25.3%
AGS; AGS, relative EC50, read-out: Re EC50
  pEC50: 4.96
Capan-1; Capan-1 (K-RAS: G12V), absolute EC50, read-out: Ab EC50
  pEC50: < 4.52
Capan-1; Capan-1, % of top inhibition
  Top Inhibition %: 35.7%
Capan-1; Capan-1, relative EC50, read-out: Re EC50
  pEC50: 5.27
H358; % of top inhibition
  Top Inhibition %: 44.0%
H358; absolute EC50, read-out: Ab EC50
  pEC50: < 4.52
H358; relative EC50, read-out: Re EC50
  pEC50: 5.30
H441; H441 (K-RAS: G12V), absolute EC50, read-out: Ab EC50
  pEC50: < 4.52
H441; H441, % of top inhibition
  Top Inhibition %: 37.0%
H441; H441, relative EC50, read-out: Re EC50
  pEC50: 5.13
H727; H727 (K-RAS: G12V), absolute EC50, read-out: Ab EC50
  pEC50: < 4.52
H727; H727, % of top inhibition
  Top Inhibition %: 42.8%
H727; H727, relative EC50, read-out: Re EC50
  pEC50: 5.44
HCT116; HCT116 (K-RAS: G13D), absolute EC50, read-out: Ab EC50
  pEC50: < 4.52
HCT116; HCT116, % of top inhibition
  Top Inhibition %: 12.2%
KP-4; KP-4 (K-RAS: G12C), absolute EC50, read-out: Ab EC50
  pEC50: 4.96
KP-4; KP-4, % of top inhibition
  Top Inhibition %: 70.4%
KP-4; KP-4, relative EC50, read-out: Re EC50
  pEC50: 5.17
LS180; LS180 (K-RAS: G12D), absolute EC50, read-out: Ab EC50
  pEC50: < 4.52
LS180; LS180, % of top inhibition
  Top Inhibition %: 6.8%
SW620; SW620 (K-RAS: G12V), absolute EC50, read-out: Ab EC50
  pEC50: < 4.52
SW620; SW620, % of top inhibition
  Top Inhibition %: 0.0%
MiaPaCa-2 [2]; MiaPaCa-2 (K-RAS: G12C), absolute EC50, read-out: Ab EC50
  pEC50: < 4.52
MiaPaCa-2 [2]; MiaPaCa-2, % of top inhibition
  Top Inhibition %: 40.1%
MiaPaCa-2 [2]; MiaPaCa-2, relative EC50, read-out: Re EC50
  pEC50: 5.36
HL60; HL60 (N-RAS: Q61L), absolute EC50, read-out: Ab EC50
  pEC50: 4.77
HL60; HL60, % of top inhibition
  Top Inhibition %: 63.9%
HL60; HL60, relative EC50, read-out: Re EC50
  pEC50: 4.89
THP1; THP1 (N-RAS: G12D), absolute EC50, read-out: Ab EC50
  pEC50: 4.80
THP1; THP1, % of top inhibition
  Top Inhibition %: 51.4%
THP1; THP1, relative EC50, read-out: Re EC50
  pEC50: 5.09
BxPC-3
  Top Inhibition %: 36.67%
Colo205
  Top Inhibition %: 73.2%
H1915
  Top Inhibition %: 28.9%
H838
  Top Inhibition %: 20.2%
HT29
  Top Inhibition %: 4.8%
RPMI8226
  Top Inhibition %: 22.72%
SW900
  Top Inhibition %: 10.9%

## O=c1nc(-c2ccc(C(F)(F)F)cc2)[nH]c2c1CSCC2 [XAV-939, 2-[4-(trifluoromethyl)phenyl]-1,5,7,8-tetrahydrothiopyrano[4,3-d]pyrimidin-4-one]
[3]; A549, in combination with 0.013 μM K102
  Ratio ([…] DMSO IC50/combination IC50): >2
[3]; A549, in combination with 0.04 μM K102
  Ratio ([…] DMSO IC50/combination IC50): >2
[3]; A549, in combination with 0.33 uM K101A
  Ratio ([…] DMSO IC50/combination IC50): 2.55
[3]; A549, in combination with 1 uM K101A
  Ratio ([…] DMSO IC50/combination IC50): 4.23
[3]; K101A or K102
  effect in combination with K101A or K102 in inhibiting the growth of A549 cells: strong synergistic effect
[3]; agent assayed in combination with K101A, A549, * 2-3 concentrations, # full concentration ranges
  Combination in A549: K101A (synergism/antagonism): Synergism
[3]; agent assayed in combination with K102, A549, * 2-3 concentrations, # full concentration ranges
  Combination in A549: K102 (synergism/antagonism): Synergism
MiaPaCa-2 [4]; K101A (0.166 and 1 μM) or K102 (0.0017 and 0.005 μM)
  effect in combination with low doses of K101A or K102: additive effects
Panc2.13
  effect in combination with K101A: strong synergy

## CS(=O)(=O)c1ccc(C(=O)Nc2ccc(Cl)c(-c3ccccn3)c2)c(Cl)c1 [Vismodegib]
[3]
  Combination in A549: K101A (synergism/antagonism): Synergism
  Combination in A549: K102 (synergism/antagonism): Synergism
  effect in combination with the PKC activator compounds in inhibiting the growth of A549 cells: strong synergy
  inhibition of cell proliferation by the agent alone: did not inhibit
MiaPaCa-2 [4]; alone at 10 μM
  inhibition of proliferation by the agent alone: did not inhibit
MiaPaCa-2 [4]; at 1 μM
  effect in combination with K101A or K102 (synergy): not
MiaPaCa-2 [4]; at 10 μM
  effect in combination with K101A or K102: synergy

## CC(=O)OC12CC(C)C3(O)C(C=C(COC(=O)CC(N)C(=O)[O-])CC4(O)C(=O)C(C)=CC43)C1C2(C)C.[Na+] (stereo not drawn) [Compound K101I]
AsPC-1; AsPC-1 (K-RAS: G12D), absolute EC50, 96 hours, read-out: Ab EC50
  pEC50: < 4.52
AsPC-1; AsPC-1, 96 hours
  Top Inhibition %: 25.0%
AsPC-1; AsPC-1, relative EC50, 96 hours, read-out: Re EC50
  pEC50: 5.18
CCRF-CEM; CCRF-CEM (K-RAS: G12D), absolute EC50, 96 hours, read-out: Ab EC50
  pEC50: < 4.52
CCRF-CEM; CCRF-CEM, 96 hours
  Top Inhibition %: 37.4%
CCRF-CEM; CCRF-CEM, relative EC50, 96 hours, read-out: Re EC50
  pEC50: 5.82
Pan2.03; Pan2.03 (K-RAS: G12D), absolute EC50, 96 hours, read-out: Ab EC50
  pEC50: < 4.52
Pan2.03; Pan2.03, 96 hours
  Top Inhibition %: 26.3%
Pan2.03; Pan2.03, relative EC50, 96 hours, read-out: Re EC50
  pEC50: 5.22
Pan2.13; Pan2.13 (K-RAS: Q61H), absolute EC50, 96 hours, read-out: Ab EC50
  pEC50: < 4.52
Pan2.13; Pan2.13, 96 hours
  Top Inhibition %: 48.3%
Pan2.13; Pan2.13, relative EC50, 96 hours, read-out: Re EC50
  pEC50: 6.80
BxPC-3
  Top Inhibition %: 38.12%
Colo205
  Top Inhibition %: 82.2%
H1915
  Top Inhibition %: 16.4%
H838
  Top Inhibition %: 29.3%
HT29
  Top Inhibition %: 11.8%
RPMI8226
  Top Inhibition %: 17.60%
SW900
  Top Inhibition %: 10.8%
